# From patent US11311560B2, “Cyclic plasmenylethanolamines” (MED-LIFE DISCOVERIES LP, priority 2017, dated 2022)
# Several values for one entry are separate records, joined by “and”; a condition that tells them apart may be missing. Equal entries are not always repeated. Entries after “also recorded” stand apart in the source; their conditions may differ.
# Experiments:
# Pex7 hypomorph/null mice = experiment: 4 weeks oral treatment of Pex7 hypomorph/null animals: plasmalogen levels in plasma and tissues; type: in vivo, mouse; details: 50 mg/kg oral gavage, 5 days per week
# Excerpt: The Pex7 hypomorph/null model is a hypomorphic (B6;129S6-Pex7^tm2.3Brav/s9) mouse model on a mixed background (C57BL/6NCrl and 129S6/SvEvTac). The hypomorphic allele in Pex7 hypomorph/null was generated by inserting an inverse neo cassette into intron 2 and lox P sites surrounding exon 3. The Pex7 null allele was generated using (B6.C-Tg(cmv-cre)1Cgn/J) mouse. The Pex7 hypomorph/null mouse model has 90% survival, 0.016-0.257% of wild type Pex7 mRNA levels and 20-30% plasmalogen levels Pex7 hypomoprh/null mice (3-4 months); and wild-type animals, males and females included in treatments and behavioral tests. Pex7 hypomorph/null mice were randomly assigned, after a baseline open field test, into 3 treatment groups: PPI-1040, PPI-1011, and vehicle controls, n=6 mice per group). PPI-1011 or PPI-1040 at 50 mg/kg was given by oral gavage 5 days per week (Monday-Friday) for 4 weeks. During the treatment period, animals were weighed weekly and observed for signs of distress. The open field test was performed at the end of treatment. To avoid selection bias, data analysis was performed only at the study end. Animals were sacrificed after a 24-hour post the last dose.
# Tissue samples frozen by submersion in liquid nitrogen were homogenized using the Covaris Cryoprep resulting in a fine powder. The powder was then aliquoted using anti-static polypropylene disposable milligram scoops (TWD Tradewinds) resulting in 4-6 mg of tissue per 1.4 ml Thermo matrix tubes. Weights were recorded and metabolite levels were normalized per mg of tissue. HPLC grade water (50 μl) was added into each tube and samples were snap frozen in liquid nitrogen and then stored at −80° C. until extraction. On the day of the extraction, tissue samples were thawed to room temperate and sonicated for 15 mins in an ice bath before mixing at 2000 rpm for a 5 minute and then adding 600 μL of ethyl acetate. Lipids were extracted into ethyl acetate by mixing at 1750 rpm for 1 hr followed by a 10 min centrifugation at 3500 rpm to obtain a clear ethyl acetate layer. Tissue lipid extracts were diluted into an ethyl acetate stock (brain regions diluted 1:10, peripheral tissues 1:5) containing labeled internal standard [^13C-PlsEtn (C37^13C6H74NO7P). Water (40 μL) was added to the diluted extracts and samples were stirred at 1500 rpm for 1 hr followed by a 2 min centrifugation at 3500 rpm.
# Plasma extraction was performed on 20 μL aliquots in 1.4 ml Thermo matrix tubes. Lipids were extracted by adding HPLC grade water (50 μl) and ethyl acetate containing labeled internal standard [^13C-PlsEtn (C37^13C6H74NO7P) at 0.2 μg/mL (500 μL) to each plasma sample and then mixing at 1750 rpm for 1 hr followed by a 2 min centrifugation at 3500 rpm for phase separation.
# A 100 μL aliquot of the ethyl acetate layer was analyzed using FI-MS/MS on a API4000™ mass spectrometer (Applied Biosystems) coupled with Agilent 1100 HPLC pump and auto sampler. Each transition was scanned for 50 ms with a total acquisition time per sample of 2 min. ethyl acetate:methanol:water ratio of 80:15:5 at a flow rate of 600 μL/min was used as the mobile phase. All standards and stable isotopes used were >95% pure and manufactured by Med-Life Discoveries LP. All the solvents used above were HPLC grade. All samples were analyzed in triplicate to control for any variation resulting from instrument variability. Stable isotope ratios for each analyte were calculated for all tissue and plasma samples (Table 2).
# [1] = test system: Pex7 homozygous hypomorphic animals (Pex7^neo/neo); experiment: Sub-chronic (9 weeks) dosing with PPI-1040: plasmalogen levels in plasma, liver, lung; type: in vivo, mouse; details: 89.7 mg/Kg intraperitoneal, 3 doses per week
# Procedure: Pex7 homozygous hypomorphic animals)(Pex7^neo/neo) were used as a model of rhizomelic chondrodysplasia punctata to further test the ability of PPI-1040 to augment plasmalogen levels in a deficient system, following 9 weeks of sub-chronic dosing. PPI-1040 was stored in a sealed ampoule in solution with dichloromethane under argon gas until immediately before use. At time of treatment the ampoule was opened and dichloromethane was evaporated off under nitrogen gas for 10 minutes. Neobee M-5 was then added and the solution vortexed to generate a 22.4 mg/mL formulation. Animals were dosed via intraperitoneal injections with doses adjusted by weight to ensure an 89.7 mg/Kg dose to each animal. Animals were sacrificed following 9 weeks of treatment with 3 doses administered per week (Monday, Wednesday and Friday). Blood samples were collected in EDTA tubes and then spun down in a clinical centrifuge. Plasma samples were stored at −80° C. until thawed for analysis. Tissue samples were harvested and flash frozen in liquid nitrogen and then stored at −80° C. All tissue samples were homogenized using liquid nitrogen, generating a fine powder. Extraction and plasmalogen analysis by LC-MS/MS was carried out as described above.
# [2] = In vitro acid stability (pH 1-5, one hour, FI-MS/MS); type: physicochemical
# Procedure: To test the ability of the vinyl ether in PPI-1040 to withstand the acidic nature of the stomach the compound was exposed to a range of acid strengths (pH 1-5). The stability of the vinyl bond was tested by exposing PPI-1040 (formulated as indicated above) to a pH range from 1-5. The pH solutions were made by serial 10-fold dilutions of 1M HCL in HPLC grade water until pH 4 is reached. Pure HPLC grade water was used as the control solution. The final dilution was completed by added a 20 μl aliquot to 200 μl of the PPI-1040 formulation resulting in a pH range from 1-5 (each condition was tested in triplicate). The mixture was vortexed at room temperature for one hour. Following the one hour incubation each solution was re-suspended in ethyl acetate to obtain 10 μl/ml solution which was analyzed using flow injection tandem mass spectrometry (FI-MS/MS) on a API4000™ mass spectrometer (Applied Biosystems) coupled with Agilent 1100 HPLC pump and auto sampler.
compound,measurement,setting,value
"CC/C=C\C/C=C\C/C=C\C/C=C\C/C=C\C/C=C\CCC(=O)OC(CO/C=C\CCCCCCCCCCCCCC)COP1(=O)NCCO1 (stereo not shown) [PPI-1040, 1-(((Z)-hexadec-1-en-1-yl)oxy)-3-((2-oxido-1,3,2-oxazaphospholidin-2-yl)oxy)propan-2-yl (4Z,7Z,10Z,13Z,16Z,19Z)-docosa-4,7,10,13,16,19-hexaenoate]",cerebellum tissue plasmalogen levels,Pex7 hypomorph/null mice,did not show augmentation
same,cortical tissue plasmalogen levels,Pex7 hypomorph/null mice,did not show augmentation
same,kidney plasmalogen levels,Pex7 hypomorph/null mice,did not display a clear augmentation in any plasmalogen species; also recorded: did not display a significant level of augmentation in any plasmalogen species
same,liver plasmalogen levels,Pex7 hypomorph/null mice,"increases in 16:0/18:1, 16:0/18:2 and 16:0/22:6 species reaching statistical significance and 16:0/18:1. 16:0/18:2"
same,lung plasmalogen levels,Pex7 hypomorph/null mice,did not display a clear augmentation in any plasmalogen species; also recorded: did not display a significant level of augmentation in any plasmalogen species
same,plasma level of the target 16:0/22:6 plasmalogen,Pex7 hypomorph/null mice,normalizing the levels of the target 16:0/22:6 plasmalogen
same,plasma levels of other 16:0 plasmalogens (re-organization at sn-2),Pex7 hypomorph/null mice,increases in all measured 16:0 plasmalogens with the exception of 16:0/22:4; also recorded: increases in all 16:0 plasmalogens measured except 16:0/22:4
same,plasma plasmalogen levels (all species measured),Pex7 hypomorph/null mice,able to augment plasmalogen levels; also recorded: did effectively augment plasmalogen levels
same,plasma plasmalogens containing 18:0 and 18:1 at sn-1,Pex7 hypomorph/null mice,no augmentation was observed in any of those species
same,plasmalogen levels in tissues (peripheral and brain),Pex7 hypomorph/null mice,"augmentation observed in the liver, skeletal muscle and small intestine"
same,skeletal muscle plasmalogen levels,Pex7 hypomorph/null mice,"16:0/20:5, 16:0/22:6 and total 16:0 plasmalogen pool levels statistically increased"
same,small intestine plasmalogen levels,Pex7 hypomorph/null mice,16:0/18:1 and 16:0/18:2 species reaching a statistically significant increase and only 16:0/18:1 and 16:0/18:2 reached significance
same,vinyl-acyl and alkyl-acyl glycerol levels,Pex7 hypomorph/null mice,None of the alkyl-acyl or vinyl-acyl glycerol species measured were increased
same,16:0 plasmalogen pool in serum (FIG. 5: plasma),[1],elevated to levels significantly above control
same,liver levels of the target plasmalogen (16:0/22:6),[1],elevated to above control levels
same,liver total 16:0 plasmalogen pool,[1],elevated to above control levels
same,lung levels of the target plasmalogen (16:0/22:6),[1],elevated to control levels
same,lung total 16:0 plasmalogen pool,[1],elevated to control levels
same,target 16:0/22:6 ethanolamine plasmalogen in serum (FIG. 5: plasma),[1],elevated to levels significantly higher than control
same,level of the cyclized (closed ring) form after incubation,"[2]; aqueous control and pH 1-5, one hour, room temperature",almost undetectable in all samples; also recorded: minimal intact PPI-1040 being observed
same,cleavage of the sn-1 vinyl-ether bond (loss of sn-1 group),"[2]; control and pH 3-5, one hour",minimal loss of the sn-1 group
same,cleavage of the sn-1 vinyl-ether bond (loss of sn-1 group),"[2]; pH 1, one hour",overall degradation of the molecule; also recorded: largely degraded
same,stability of open ring form (PlsEtn 16:0/22:6),"[2]; pH 1, one hour",very little being detected
same,cleavage of the sn-1 vinyl-ether bond (loss of sn-1 group),"[2]; pH 2, one hour",cleavage of the vinyl group is prevalent; also recorded: observed beginning at pH2
same,stability of open ring form (PlsEtn 16:0/22:6),"[2]; pH 2, one hour",slight reduction
